Data: article PMC11874377, “Fungal-derived methyldeoxaphomins target Plasmodium falciparum segregation through the inhibition of PfActin1” (Proceedings of the National Academy of Sciences of the …, 2025)
Where two headings read alike, the source gives them in different places.

Columns and labels:
P. falciparum = assay: Parasite reduction ratio (PRR); type: cell-based, Plasmodium falciparum; conditions: 10 × EC50
Method: After a 24 h lag phase, only 10^0.64 parasites are killed within the first replication cycle (48 h). […] We also examined the in vitro killing rate in Dd2 through flow cytometric analysis. […]
Parasite reduction ratio adapted from protocol by Sanz et al (Sanz et al., 2012). In brief, early ring stage mono-infected RBCs at 106 were incubated with a 10 x EC50 concentration of NPDG-F, DHA, or atovaquone for either 24, 48, 72, 96, or 120 h. Following incubations, cells were washed and serially diluted. After 3 weeks, growth was determined via SYBR […]
Green I staining. […]

[1] = tested on: human HepG2 hepatoma cells; assay: cells; type: cell-based; conditions: for EC50: Homo sapiens
Method: The antiplasmodial activity of these analogs was assessed in P. falciparum asexual blood stage using a SYBR Green I-based assay. Compounds were tested in both the multidrug resistant line Dd2, and the chloroquine-sensitive line 3D7, to probe any potential for preexisting resistance. […] These methyldeoxaphomin analogs were also cross-screened for cytotoxicity in the human cell line HepG2 to determine their selectivity for the Plasmodium parasite. […] This effect was maintained with analog NPDG-F where both R1 and R2 were substituted with OH groups. […] In addition, the hydroxyl group at carbon 7 seems to be critical for function as a drastic loss of potency was found in NPDG-D as compared to B and C. […]
Cytotoxicity was assessed using an MTS (3-(4,5-Dimethylthiazol-2-yl)-5-(3-carboxymethoxyphenyl)-2-(4-sulfophenyl)-2H-tetrazolium) absorbance assay with human HepG2 hepatoma cells. Cells were maintained in MEM supplemented with 10%FBS, 1% Antibiotic/Antimycotic, 1 mM sodium pyruvate, and 0.15% sodium bicarbonate in a 5 % CO2, 95% air environment at 37°C. For the assay cells were seeded at a density of 2,250 cells per well on 384-well microtiter plates 24 h prior to compound addition. Following a 48-h incubation with compounds, MTS solution was added to wells and absorbance was read after 2-4 h on a Synergy Neo2 multimode reader (BioTek Winsooki, VT). Compound dose response curves and EC50 determination was performed using CDD Vault normalized to 5% triton and vehicle controls. […]

[2] = tested on: P. berghei liver stage in HepG2 cells; assay: High content imaging liver stage screening; type: cell-based, Plasmodium berghei
Method: Given these findings, we sought to observe the effects of NPDG-F on hepatic merozoites to see whether they were similarly impacted. To this end, HepG2 cells were infected with P. berghei sporozoites expressing luciferase and seeded onto a microtiter plate with NPDG-F at 2 HPI. At 72 HPI, a high content imaging (HCI) readout of treated parasites was performed to observe the impact on parasite maturation and merozoite formation via the expression of liver stage maturation markers MSP1 and AMA1. […] Infected monolayers treated with 1.1 µM of methyldeoxaphomin NPDG-F from 2-55 HPI were immunolabeled to examine the localization of MSP1 and AMA1 relative to parasite DNA during the period of merozoite formation (Fig. 4G). […]
Parasite reduction ratio adapted from protocol by Sanz et al (Sanz et al., 2012). […] After 3 weeks, growth was determined via SYBR Green I staining. The PRR was calculated and graphed using Graphpad Prism version […]
To examine the impact of methyldeoxaphomin NDPG F on the Plasmodium liver stage, HepG2 cells were infected with a luciferase-expressing strain of P. berghei. […] At 48 HPI, luciferase expression was measured as described(Van Voorhis et al., 2016) and parasite growth was quantified. After 72 HPI, High content imaging was performed to observe the relative expression of MSP1 and AMA1, the size and quantity of exoerythrocytic form parasites, and the HepG2 area occupied. […]

Structure (SMILES): C=C1C(C)C2C(Cc3ccccc3)NC(=O)C23C(=O)C=CC(O)C(O)C(C)CC(C)CC=CC3C1O (centres unmarked) [Methyldeoxaphomin NPDG-F]
- 99.9% PCT (parasite clearance time) (P. falciparum): more than 96 h
- killing profile (P. falciparum): gradual killing profile
- lag phase (P. falciparum): 24 h
- log(PRR) (P. falciparum): 0.64
- cytotoxicity in HepG2 at the highest concentration tested ([1]; 25 µM): no signs of cytotoxicity
- Selectivity Index (SI) ([1]; HepG2 EC50/(mean of Dd2 EC50, 3D7 EC50)): > 60
- EC50 ([1]; HepG2, 48 h, means from triplicate experiments ± SEM, 48-h incubation, read-out: HepG2 EC50): > 25 µM
- EC50 ([1]; HepG2, average ± SEM of three replicates, read-out: HepG2: Average EC50): > 25 µM
- EC50 ([1]; HepG2, individual replicates, read-out: HepG2: EC50): > 25 µM
- effect on liver-stage parasite development ([2]; 1.1 µM from 2-55 HPI): developmental failure during schizogony
- MSP1 positive exoerythrocytic form (EEF) parasites remaining in the monolayer ([2]; 72 HPI, added at 2 HPI): sharp increase
